The target in data set [1] is Mitogen-activated protein kinase 14 (Homo sapiens, UniProt Q16539). Put plainly: Inhibition of human recombinant p38alpha.
Data set [2] has as its system PBMC. Put plainly: Antiinflammatory activity in human PBMC assessed as inhibition of LPS-induced TNFalpha production. The format is functional, cell-based.
Data set [3] has as its target Cytochrome P450 2D6 (Homo sapiens, UniProt P10635). Put plainly: Inhibition of CYP2D6. Format: ADME.
Data set [4] is described as follows: Aqueous solubility of the compound at pH 6.5. Format: physicochemical.
Data set [5] concerns the target Fibroblast growth factor receptor 1 (Homo sapiens, UniProt P11362). Put plainly: Inhibition of FGFR1.
Data set [6] addresses Protein kinase C delta type (Homo sapiens, UniProt Q05655). Briefly: Inhibition of PKCdelta.
The nature of data set [7]: Inhibition of Lckzeta.
For data set [8], the system named is Mus musculus. Put plainly: Antiinflammatory activity in mouse plasma assessed as inhibition of LPS-induced TNFalpha production at 5 mg/kg, po administered 24 hrs before LPS challenge measured after 90 mins. The format is functional.
Data set [9] addresses Insulin-like growth factor 1 receptor (Homo sapiens, UniProt P08069). Briefly: Inhibition of IGF-1R.
Data set [10] can be described thus: Inhibition of PKCtau.
For data set [11], the target named is Tyrosine-protein kinase BTK (Homo sapiens, UniProt Q06187). Briefly: Inhibition of Btk.
Data set [12] in a line: Metabolic rate in human liver microsomes at 3 uM after 10 mins. On the technique in general: Liver microsomes are vesicles of endoplasmic reticulum, rich in cytochrome P450 enzymes.
Data set [13] can be described thus: Metabolic rate in rat liver microsomes at 3 uM after 10 mins.
Data set [14] concerns the target MAP kinase-activated protein kinase 2 (Homo sapiens, UniProt P49137). Briefly: Inhibition of MK2.
Data set [15] in a line: Metabolic rate in mouse liver microsomes at 3 uM after 10 mins.
The target of data set [16] is Serine/threonine-protein kinase PLK1 (Homo sapiens, UniProt P53350). Put plainly: Inhibition of PLK1.
For data set [17], the target named is Protein kinase C alpha type (Homo sapiens, UniProt P17252). Put plainly: Inhibition of PKCalpha.
The target in data set [18] is Cytochrome P450 2C19 (Homo sapiens, UniProt P33261). Put plainly: Inhibition of CYP2C19. The format is ADME.
Data set [19] deals with Tyrosine-protein kinase ITK/TSK (Homo sapiens, UniProt Q08881). Briefly: Inhibition of Itk.
For data set [20], the target named is Voltage-gated inwardly rectifying potassium channel KCNH2 (Homo sapiens, UniProt Q12809). Briefly: Inhibition of human ERG by flux assay.
In data set [21] the target is Tyrosine-protein kinase JAK3 (Homo sapiens, UniProt P52333). Put plainly: Inhibition of Jak3.
Sequence of Tyrosine-protein kinase JAK3 (P52333 whole entry): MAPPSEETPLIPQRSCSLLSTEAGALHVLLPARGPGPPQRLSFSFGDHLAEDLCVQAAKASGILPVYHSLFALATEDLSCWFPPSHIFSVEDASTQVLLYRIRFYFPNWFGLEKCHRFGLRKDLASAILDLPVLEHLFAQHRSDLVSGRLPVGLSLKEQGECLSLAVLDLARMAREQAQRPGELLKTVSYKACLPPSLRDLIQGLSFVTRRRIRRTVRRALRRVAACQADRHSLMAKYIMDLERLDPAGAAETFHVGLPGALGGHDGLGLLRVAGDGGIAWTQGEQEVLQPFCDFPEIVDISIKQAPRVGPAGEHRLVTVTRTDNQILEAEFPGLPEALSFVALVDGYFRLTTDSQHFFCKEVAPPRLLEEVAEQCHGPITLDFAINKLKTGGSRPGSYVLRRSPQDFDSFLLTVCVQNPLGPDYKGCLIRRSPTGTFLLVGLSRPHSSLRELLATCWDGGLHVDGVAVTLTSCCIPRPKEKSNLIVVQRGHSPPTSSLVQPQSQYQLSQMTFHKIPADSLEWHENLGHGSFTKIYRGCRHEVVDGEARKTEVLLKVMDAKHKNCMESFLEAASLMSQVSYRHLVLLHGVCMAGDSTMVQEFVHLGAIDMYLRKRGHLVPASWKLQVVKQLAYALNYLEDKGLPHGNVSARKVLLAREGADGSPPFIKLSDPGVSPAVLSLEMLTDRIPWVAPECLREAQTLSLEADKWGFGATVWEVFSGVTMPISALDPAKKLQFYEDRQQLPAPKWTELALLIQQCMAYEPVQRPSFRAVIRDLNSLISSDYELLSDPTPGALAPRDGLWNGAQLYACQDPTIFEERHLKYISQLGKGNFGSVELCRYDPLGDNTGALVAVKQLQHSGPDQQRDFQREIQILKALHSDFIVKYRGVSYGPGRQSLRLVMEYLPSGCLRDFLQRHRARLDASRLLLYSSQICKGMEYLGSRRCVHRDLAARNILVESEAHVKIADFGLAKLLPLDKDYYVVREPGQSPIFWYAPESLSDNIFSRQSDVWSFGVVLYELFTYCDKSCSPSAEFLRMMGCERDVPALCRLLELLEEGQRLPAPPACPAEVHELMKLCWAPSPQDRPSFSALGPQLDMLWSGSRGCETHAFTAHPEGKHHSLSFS
For data set [22], the target named is Signal transducer and activator of transcription 3 (Homo sapiens, UniProt P40763). Briefly: Inhibition of STAT3.
Data set [23] in a line: Inhibition of VEGF receptor.
The target in data set [24] is Cytochrome P450 1A2 (Homo sapiens, UniProt P05177). Put plainly: Inhibition of CYP1A2. The format is ADME.
Sequence of Cytochrome P450 1A2 (P05177 whole entry): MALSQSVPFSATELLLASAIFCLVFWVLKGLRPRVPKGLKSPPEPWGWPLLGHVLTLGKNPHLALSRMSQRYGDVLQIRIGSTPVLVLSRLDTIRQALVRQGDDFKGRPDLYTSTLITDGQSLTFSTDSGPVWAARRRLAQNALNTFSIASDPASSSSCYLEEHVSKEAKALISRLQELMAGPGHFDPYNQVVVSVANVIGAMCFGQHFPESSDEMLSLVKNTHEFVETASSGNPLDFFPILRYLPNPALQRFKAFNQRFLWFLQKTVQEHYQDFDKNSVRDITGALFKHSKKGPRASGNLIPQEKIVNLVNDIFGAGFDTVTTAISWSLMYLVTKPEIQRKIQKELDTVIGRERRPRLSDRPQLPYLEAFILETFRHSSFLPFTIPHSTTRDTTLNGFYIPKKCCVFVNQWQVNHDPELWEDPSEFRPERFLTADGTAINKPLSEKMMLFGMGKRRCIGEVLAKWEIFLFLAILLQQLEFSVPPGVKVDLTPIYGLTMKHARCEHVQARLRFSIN
Data set [25] is described as follows: Inhibition of PDGF receptor.
Data set [26] has as its target Non-receptor tyrosine-protein kinase TYK2 (Homo sapiens, UniProt P29597). Put plainly: Inhibition of Tyk2.
Data set [27] in a line: Apparent permeability across human Caco-2 cells. The format is ADME, cell-based. The note with it: read-out: permeability. Background: Caco-2 cells form a polarised layer with tight junctions and transporters.
In data set [28] the target is Vascular endothelial growth factor receptor 2 (Homo sapiens, UniProt P35968). Briefly: Inhibition of KDR.
The target in data set [29] is Cytochrome P450 3A4 (Homo sapiens, UniProt P08684). Put plainly: Inhibition of CYP3A4. The format is ADME.
Data set [30] in a line: Inhibition of CaMK2.
Data set [31] deals with Diacylglycerol O-acyltransferase 1 (Homo sapiens, UniProt O75907). Briefly: Inhibition of DGAT.
Data set [32] can be described thus: Inhibition of GSK3.
Data set [33] concerns the target Protein kinase C zeta type (Homo sapiens, UniProt Q05513). Briefly: Inhibition of PKCzeta.
For data set [34], the target named is Cytochrome P450 2C9 (Homo sapiens, UniProt P11712). Briefly: Inhibition of CYP2C9. Format: ADME.
Sequence of Cytochrome P450 2C9 (P11712 whole entry): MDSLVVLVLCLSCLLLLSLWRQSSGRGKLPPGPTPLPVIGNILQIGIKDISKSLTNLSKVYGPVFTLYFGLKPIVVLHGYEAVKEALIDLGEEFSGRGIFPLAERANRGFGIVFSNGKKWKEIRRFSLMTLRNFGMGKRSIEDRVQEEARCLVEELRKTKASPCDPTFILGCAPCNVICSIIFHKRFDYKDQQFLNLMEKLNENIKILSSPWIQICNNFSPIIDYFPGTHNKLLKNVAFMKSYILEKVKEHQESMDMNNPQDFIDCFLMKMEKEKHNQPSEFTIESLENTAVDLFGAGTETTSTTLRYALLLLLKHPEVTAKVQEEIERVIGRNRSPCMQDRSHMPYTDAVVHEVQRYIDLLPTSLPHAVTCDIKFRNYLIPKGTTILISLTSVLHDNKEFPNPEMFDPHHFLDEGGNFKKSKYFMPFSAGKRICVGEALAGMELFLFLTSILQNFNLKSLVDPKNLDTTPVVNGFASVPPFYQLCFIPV

Each structure is given as a SMILES string. ≈ marks a conversion by molar mass, not a printed value.

We go through 18 molecules from ChEMBL document CHEMBL1287714, “5-amino-pyrazoles as potent and selective p38α inhibitors” (Bioorg Med Chem Lett, 2010).

Sequence of Mitogen-activated protein kinase 14 (Q16539 whole entry): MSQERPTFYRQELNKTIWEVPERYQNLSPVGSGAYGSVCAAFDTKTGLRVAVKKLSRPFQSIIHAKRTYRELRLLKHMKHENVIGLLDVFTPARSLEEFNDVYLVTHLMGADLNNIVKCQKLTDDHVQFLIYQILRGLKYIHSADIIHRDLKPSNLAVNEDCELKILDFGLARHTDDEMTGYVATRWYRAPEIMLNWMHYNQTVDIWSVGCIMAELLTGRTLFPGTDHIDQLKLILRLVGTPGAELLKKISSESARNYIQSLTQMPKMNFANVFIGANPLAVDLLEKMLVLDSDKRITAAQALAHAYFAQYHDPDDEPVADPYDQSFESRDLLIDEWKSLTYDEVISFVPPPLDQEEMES
Sequence of Non-receptor tyrosine-protein kinase TYK2 (P29597 whole entry): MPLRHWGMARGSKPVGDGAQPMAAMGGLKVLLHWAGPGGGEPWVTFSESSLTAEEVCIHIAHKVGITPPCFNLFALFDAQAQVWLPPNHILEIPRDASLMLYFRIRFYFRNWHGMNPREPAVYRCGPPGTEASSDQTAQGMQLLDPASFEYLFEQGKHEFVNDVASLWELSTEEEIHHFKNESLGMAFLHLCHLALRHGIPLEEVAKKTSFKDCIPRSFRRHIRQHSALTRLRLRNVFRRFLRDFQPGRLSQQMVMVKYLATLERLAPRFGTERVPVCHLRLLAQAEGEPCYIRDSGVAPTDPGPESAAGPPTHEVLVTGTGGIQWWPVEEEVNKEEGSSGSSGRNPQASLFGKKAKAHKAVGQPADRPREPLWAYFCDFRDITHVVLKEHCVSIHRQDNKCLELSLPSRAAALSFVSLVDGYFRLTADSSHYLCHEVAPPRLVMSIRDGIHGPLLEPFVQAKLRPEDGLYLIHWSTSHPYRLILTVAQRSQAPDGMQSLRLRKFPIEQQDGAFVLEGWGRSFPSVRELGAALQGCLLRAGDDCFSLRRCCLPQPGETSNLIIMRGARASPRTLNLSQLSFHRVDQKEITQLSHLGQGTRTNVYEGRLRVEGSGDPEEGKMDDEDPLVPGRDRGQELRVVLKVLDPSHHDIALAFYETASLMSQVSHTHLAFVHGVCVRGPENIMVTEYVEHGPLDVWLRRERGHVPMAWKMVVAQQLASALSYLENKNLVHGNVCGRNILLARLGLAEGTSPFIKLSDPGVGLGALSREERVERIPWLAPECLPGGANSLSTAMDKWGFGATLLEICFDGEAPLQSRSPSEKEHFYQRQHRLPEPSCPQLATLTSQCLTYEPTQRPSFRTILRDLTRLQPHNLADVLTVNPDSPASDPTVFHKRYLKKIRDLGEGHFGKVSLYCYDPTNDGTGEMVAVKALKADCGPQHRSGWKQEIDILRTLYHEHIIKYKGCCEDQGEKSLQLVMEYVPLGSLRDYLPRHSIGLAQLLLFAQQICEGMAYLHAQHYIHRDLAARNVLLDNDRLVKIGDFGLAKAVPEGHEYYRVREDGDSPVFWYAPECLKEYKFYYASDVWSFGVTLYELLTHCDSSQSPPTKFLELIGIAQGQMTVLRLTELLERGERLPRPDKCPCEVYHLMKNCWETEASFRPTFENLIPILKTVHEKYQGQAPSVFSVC
Sequence of Cytochrome P450 2D6 (P10635 whole entry): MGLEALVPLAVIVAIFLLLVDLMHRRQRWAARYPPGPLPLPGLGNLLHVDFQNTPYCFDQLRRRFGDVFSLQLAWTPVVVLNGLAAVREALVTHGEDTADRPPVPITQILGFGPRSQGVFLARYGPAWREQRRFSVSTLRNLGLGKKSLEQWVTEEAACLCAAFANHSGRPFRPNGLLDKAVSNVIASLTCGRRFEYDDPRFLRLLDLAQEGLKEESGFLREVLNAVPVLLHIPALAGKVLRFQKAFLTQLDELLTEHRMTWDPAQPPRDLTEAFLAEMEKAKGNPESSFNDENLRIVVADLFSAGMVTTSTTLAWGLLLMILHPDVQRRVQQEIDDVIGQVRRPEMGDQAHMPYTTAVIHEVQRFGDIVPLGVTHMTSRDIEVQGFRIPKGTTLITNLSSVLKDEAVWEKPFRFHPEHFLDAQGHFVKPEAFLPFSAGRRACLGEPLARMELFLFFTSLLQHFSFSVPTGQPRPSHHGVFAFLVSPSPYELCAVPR
Sequence of Protein kinase C zeta type (Q05513 whole entry): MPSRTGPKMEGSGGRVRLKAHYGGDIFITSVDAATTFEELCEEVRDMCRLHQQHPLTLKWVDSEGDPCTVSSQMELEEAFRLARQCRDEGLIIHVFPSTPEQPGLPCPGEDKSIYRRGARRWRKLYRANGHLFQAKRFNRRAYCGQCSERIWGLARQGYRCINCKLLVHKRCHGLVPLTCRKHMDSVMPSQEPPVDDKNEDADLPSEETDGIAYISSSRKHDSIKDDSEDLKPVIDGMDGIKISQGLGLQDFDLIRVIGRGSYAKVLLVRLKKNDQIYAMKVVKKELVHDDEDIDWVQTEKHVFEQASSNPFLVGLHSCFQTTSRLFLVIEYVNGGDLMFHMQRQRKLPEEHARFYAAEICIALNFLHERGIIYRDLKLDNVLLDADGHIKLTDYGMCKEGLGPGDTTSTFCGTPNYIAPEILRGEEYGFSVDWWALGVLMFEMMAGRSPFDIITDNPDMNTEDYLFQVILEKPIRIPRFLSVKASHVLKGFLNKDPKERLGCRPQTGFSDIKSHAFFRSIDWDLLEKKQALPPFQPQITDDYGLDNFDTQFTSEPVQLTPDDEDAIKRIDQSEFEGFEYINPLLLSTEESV

As usually defined, the IC50 is the concentration needed to halve the response being measured. Turning to `CCCCn1ncc(C(=O)Nc2cc(C(=O)Nc3ccon3)ccc2C)c1N`, the IC50 in data set [1] and in [2] was 2 nM in each case.
With `CCCCn1ncc(C(=O)Nc2cc(C(=O)Nc3ccnn3C)ccc2C)c1N`, the results for the IC50 in data set [1] and in data set [2] were 7 nM and 17 nM, respectively.
`Cc1ccc(C(=O)Nc2ccon2)cc1NC(=O)c1cnn(-c2ccccc2)c1N`: in [2], the IC50 turned out to be 1 nM.
Consider `Cc1ccc(C(=O)Nc2ccon2)cc1NC(=O)c1cnn(-c2ccccn2)c1N`, for which the half-maximal inhibitory concentration (IC50) is 2 nM in data set [1] and 8 nM in data set [2].
Consider `Cc1ccc(C(=O)Nc2ccnn2C)cc1NC(=O)c1cnn(-c2ccccc2)c1N`, for which the results for the 50% inhibitory concentration (IC50) in data set [1] and in data set [2] were 7 nM and 5 nM, respectively.
For the molecule `Cc1ccc(C(=O)NC2CC2)cc1NC(=O)c1cnn(-c2ccccc2)c1N`, the IC50 was determined as 7 nM in [1] and 26 nM in [2].
Consider `Cc1ccc(C(=O)Nc2ccnn2C)cc1NC(=O)c1cnn(-c2ccccc2F)c1N`, for which the IC50 in data set [1] was 4 nM; in [2], 2 nM.
For the molecule `Cc1ccc(C(=O)Nc2ccon2)cc1NC(=O)c1cnn(-c2ccc(F)cc2)c1N`, the half-inhibitory concentration (IC50) in data set [1] and in [2] was 2 nM throughout.
`CCn1nccc1NC(=O)c1ccc(C)c(NC(=O)c2cnn(-c3ccccc3F)c2N)c1`: the results for the IC50 in data set [1] and in [2] were 3 nM and 5 nM, respectively.
The term solubility denotes the dissolved amount per volume that the medium holds. What is called inhibition in vivo is the percentage by which the read-out fell short of the control. On to `Cc1ccc(C(=O)Nc2ccon2)cc1NC(=O)c1cnn(-c2ccccc2F)c1N`, for which the IC50 in data set [3] is > 40000 nM; in data set [5], > 50000 nM; in data set [6] it was > 40000 nM; in data set [7], > 50000 nM; in [9], > 50000 nM; in [10] it was > 13000 nM. Also, the half-inhibitory concentration (IC50) was > 15000 nM in data set [11]; 2 nM in [1]; > 30000 nM in [14]; > 15000 nM in [16]; > 40000 nM in data set [17]; > 13000 nM in data set [18]. In addition, the IC50 in [19] is > 50000 nM; in data set [20], > 160000 nM; in data set [21], > 10000 nM; in [22], > 10000 nM; in [23], > 50000 nM; in data set [24] it was > 40000 nM. For the same molecule, the 50% inhibitory concentration (IC50) in data set [25] was 9200 nM; in data set [26], > 5000 nM; in data set [28], > 50000 nM; in [29], > 40000 nM; in [30], > 50000 nM; in data set [31], > 20000 nM. Besides, the half-maximal inhibitory concentration (IC50) is > 5000 nM in [32], 1 nM in data set [2], > 20000 nM in data set [33] and 23000 nM in [34]. Besides, the solubility in data set [4] was found to be 33 µg/mL (≈ 78.5 µM). Besides, the inhibition in vivo at 5 mg/kg in [8] is > 75%. In addition, the figures for the metabolic rate at 10 min, 3 µM in [12], in [13] and in [15] were 0.001 nmol/min/mg, 0 nmol/min/mg and 0 nmol/min/mg, respectively. In [27], the Papp was 23.1 ×10⁻⁶ cm/s.
With `CCn1nccc1NC(=O)c1ccc(C)c(NC(=O)c2cnn(-c3ccc(F)cc3)c2N)c1`, the concentration for half-maximal inhibition (IC50) in data set [1] and in [2] was 2 nM throughout.
`CNC(=O)c1ccc(C)c(NC(=O)c2cnn(-c3ccccc3)c2N)c1`: the IC50 in data set [1] was found to be 14 nM; in [2] it was 48 nM.
In the case of `CCNC(=O)c1ccc(C)c(NC(=O)c2cnn(-c3ccccc3)c2N)c1`, the concentration for half-maximal inhibition (IC50) in data set [1] came out at 8 nM; in data set [2], 16 nM.
Turning to `CCNc1c(C(=O)Nc2cc(C(=O)Nc3ccon3)ccc2C)cnn1-c1ccccn1`, the IC50 in data set [1] stood at 4 nM; in [2], 30 nM.
For `CCNc1c(C(=O)Nc2cc(C(=O)Nc3ccon3)ccc2C)cnn1-c1ccccc1C`, the half-inhibitory concentration (IC50) in [1] stood at 5 nM; in data set [2], 1 nM.
Turning to `CCn1nccc1NC(=O)c1ccc(C)c(NC(=O)c2cnn(-c3ccccc3)c2N)c1`, the figures for the IC50 in data set [1] and in data set [2] were 5 nM and 8 nM, respectively.
In the case of `CCNC(=O)c1ccc(C)c(NC(=O)c2cnn(-c3ccccc3)c2NCC)c1`, the IC50 amounted to 6 nM in [1] and 15 nM in data set [2].
As to `CNc1c(C(=O)Nc2cc(C(=O)Nc3ccon3)ccc2C)cnn1-c1ccccc1`, the half-maximal inhibitory concentration (IC50) was determined as 5 nM in data set [1] and 7 nM in data set [2].
